# Tests used:
# [1] = authorized minimum dosage amount; compared with canagliflozin; cited from earlier work
# SGLT2 = target: T1, SGLT2 (Homo sapiens, UniProt P31639); settings: cited from earlier work
# T1 sequence (P31639 1-672): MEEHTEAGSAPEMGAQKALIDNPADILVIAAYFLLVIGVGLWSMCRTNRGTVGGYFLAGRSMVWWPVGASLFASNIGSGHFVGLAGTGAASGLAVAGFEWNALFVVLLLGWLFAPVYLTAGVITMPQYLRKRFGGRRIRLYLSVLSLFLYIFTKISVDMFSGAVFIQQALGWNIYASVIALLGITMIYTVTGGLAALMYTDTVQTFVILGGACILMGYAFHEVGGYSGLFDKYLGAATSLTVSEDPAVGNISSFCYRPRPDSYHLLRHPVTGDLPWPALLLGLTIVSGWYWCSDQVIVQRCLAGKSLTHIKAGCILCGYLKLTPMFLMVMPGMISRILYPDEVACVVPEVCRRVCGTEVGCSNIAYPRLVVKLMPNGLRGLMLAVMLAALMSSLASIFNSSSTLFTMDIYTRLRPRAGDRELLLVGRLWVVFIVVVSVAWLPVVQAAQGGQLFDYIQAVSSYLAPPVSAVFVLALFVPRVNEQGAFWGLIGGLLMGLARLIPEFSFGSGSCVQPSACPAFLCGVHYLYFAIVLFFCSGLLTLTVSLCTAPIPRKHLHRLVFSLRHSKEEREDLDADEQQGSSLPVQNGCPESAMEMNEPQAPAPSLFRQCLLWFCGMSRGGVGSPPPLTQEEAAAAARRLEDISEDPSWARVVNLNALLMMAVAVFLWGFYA
# [2] = Preliminary test: body weight, blood sugar and urinal sugar in light-irradiated age-related maculopathy mouse model; assay type: in vivo, BALB/c mice; settings: AMD mouse; for change in body weight as compared to when not administering ipragliflozin: light irradiation 8000 lux 10 hours, bred one week
# Protocol: (§1) To BALB/c mice, light irradiation (8000 lux, 10 hours) was performed, and then the mice were bred for one week. The existing SGLT2 inhibitor agent ipragliflozin was orally administered in an amount of 0.03 mg/kg/day and 0.1 mg/kg/day for four days including the day of light irradiation. The effects on body weight and blood sugar were confirmed. These models are widely used as age-related maculopathy models.
# FIGS. 1 and 2 show the results of body weight and blood sugar levels when administering the existing SGLT2 inhibitor agent ipragliflozin at 0.03 mg/kg/day and 0.1 mg/kg/day.
# [3] = system: retina of an age-related maculopathy mouse model; test: Hematoxylin-Eosin staining of retina, thickness of outer granular layer, in age-related maculopathy mouse model; assay type: in vivo, BALB/c mice; settings: vs non-administered AMD mouse
# Protocol: FIG. 4 is a graph showing the thickness of outer granular layer (including visual cells) of the retina of an age-related maculopathy mouse model in numeral terms. […] “***” represents P<0.005 vs control mouse, “#” and “##” each represents P<0.05 vs Ipragliflozin non-administered AMD mouse, and P<0.01 vs Ipragliflozin non-administered AMD mouse, respectively.
# as §1
# [4] = 0.03 mg/kg/day orally for four days
# [5] = 0.1 mg/kg/day orally for four days
SMILES,"maximum blood concentration (Cmax) in the minimum dosage amount, relative to that of canagliflozin [1]","IC50 level showing the inhibition activity, compared with canagliflozin (SGLT2)",other results
O=C(O)[C@@H]1CCCN1.OC[C@H]1O[C@@H](c2ccc(F)c(Cc3cc4ccccc4s3)c2)[C@H](O)[C@@H](O)[C@@H]1O [ipragliflozin L-proline],similar,similar,
"CCc1ccc(Cc2ccc3c(c2)[C@]2(OC3)O[C@H](CO)[C@@H](O)[C@H](O)[C@H]2O)cc1 [tofogliflozin hydrates, tofogliflozin hydrate]",approximately 1/10,similar,
OC[C@H]1O[C@@H](c2ccc(Cl)c(Cc3ccc(O[C@H]4CCOC4)cc3)c2)[C@H](O)[C@@H](O)[C@@H]1O [empagliflozin],approximately 1/10,similar,
CCOc1ccc(Cc2cc([C@@H]3S[C@H](CO)[C@@H](O)[C@H](O)[C@H]3O)c(OC)cc2C)cc1 [luseogliflozin hydrate],approximately 1/10,similar,
OC[C@H]1O[C@@H](c2ccc(F)c(Cc3cc4ccccc4s3)c2)[C@H](O)[C@@H](O)[C@@H]1O [ipragliflozin],,,"change in urinal sugar as compared to when not administering ipragliflozin ([2]; 0.03 mg/kg/day and 0.1 mg/kg/day orally for four days): no change was observed; change in blood sugar as compared to when not administering ipragliflozin [2, 4]: no change was observed; change in body weight as compared to when not administering ipragliflozin [2, 4]: no change was observed; change in blood sugar as compared to when not administering ipragliflozin [2, 5]: no change was observed; change in body weight as compared to when not administering ipragliflozin [2, 5]: no change was observed; thinning of membrane shown in retina of AMD mouse (thickness of outer granular layer) ([3]; 0.03 mg/kg/day orally): significantly ameliorated; thinning of membrane shown in retina of AMD mouse (thickness of outer granular layer) ([3]; 0.1 mg/kg/day orally): significantly ameliorated"

# From US11382925B2, “Agent for treating retinal disease” (CARNA HEALTH SUPPORT LTD., priority 2017, dated 2022)
